Tests used:
[1] = samples tasted by a professional panel
Experimental: The following samples were prepared:
A: 0.6% NaCl and 0.03% MSG
B: 0.01% Fraction 2 as obtained in example 1
C: 0.6% NaCl and 0.03% MSG and 0.5 ppt Fraction B as obtained in example 1
D: 0.6% NaCl and 0.03% MSG and 0.4 ppb Fraction A as obtained in example 1
The samples were tasted by a professional panel and described as follows: […]

[2] = tasting different fractions of the Example 1 product (LC-MS, 1H NMR identification); conditions: fractions of the lactic acid/GMP reaction product of Example 1
Experimental: 1000 g of lactic acid (about 90% pure), 50 g of NaCl and 250 g of GMP were thoroughly mixed. The mixture was heated and stirred at 100° C. for 4 hour. The mixture was cooled to 60° C. and 4000 g of ethyl acetate was added. The mixture was stirred for 1 h. Next, the mixture was filtered over a glass filter and the filter residue was washed with 1000 g ethyl acetate. Thus, 362 g of an almost white powder was obtained. The main taste components of the obtained product were identified by LC-MS and tasting different fractions.

Row | Substance | taste description by professional panel ([1]; sample B: 0.01% of the fraction alone) | taste description by professional panel ([1]; sample C: 0.5 ppt of the fraction with 0.6% NaCl and 0.03% MSG (base alone: salty, umami)) | taste of the fractions containing the substance [2] | taste description by professional panel ([1]; sample D: 0.4 ppb of the fraction with 0.6% NaCl and 0.03% MSG (base alone: salty, umami))
1 | N-Lactoyl-GMP [Fraction B] | mild acidic, late onset umami, kokumi, full, sweet, very lingering | salty, umami, full, mouthfeel, kokumi, salivating and very lingering | “long-lasting” and “kokumi” | 
2 | O-Lactoyl-GMP [Fraction A] |  |  | “long-lasting” and “kokumi” | salty, umami, full, after taste and lingering

Source: US7862844B2, “Taste improving substances” (Quest International Services B.V., priority 2005, dated 2011)
